The values that follow come from US11998539B2, “Substituted aminoquinolones as DGKalpha inhibitors for immune activation” (Bayer Aktiengesellschaft, priority 2019, dated 2024).

pIC50: −log10 of the molar value.

Sequence of DGKα (P23743 other isoform, or with tags, fused parts or gaps): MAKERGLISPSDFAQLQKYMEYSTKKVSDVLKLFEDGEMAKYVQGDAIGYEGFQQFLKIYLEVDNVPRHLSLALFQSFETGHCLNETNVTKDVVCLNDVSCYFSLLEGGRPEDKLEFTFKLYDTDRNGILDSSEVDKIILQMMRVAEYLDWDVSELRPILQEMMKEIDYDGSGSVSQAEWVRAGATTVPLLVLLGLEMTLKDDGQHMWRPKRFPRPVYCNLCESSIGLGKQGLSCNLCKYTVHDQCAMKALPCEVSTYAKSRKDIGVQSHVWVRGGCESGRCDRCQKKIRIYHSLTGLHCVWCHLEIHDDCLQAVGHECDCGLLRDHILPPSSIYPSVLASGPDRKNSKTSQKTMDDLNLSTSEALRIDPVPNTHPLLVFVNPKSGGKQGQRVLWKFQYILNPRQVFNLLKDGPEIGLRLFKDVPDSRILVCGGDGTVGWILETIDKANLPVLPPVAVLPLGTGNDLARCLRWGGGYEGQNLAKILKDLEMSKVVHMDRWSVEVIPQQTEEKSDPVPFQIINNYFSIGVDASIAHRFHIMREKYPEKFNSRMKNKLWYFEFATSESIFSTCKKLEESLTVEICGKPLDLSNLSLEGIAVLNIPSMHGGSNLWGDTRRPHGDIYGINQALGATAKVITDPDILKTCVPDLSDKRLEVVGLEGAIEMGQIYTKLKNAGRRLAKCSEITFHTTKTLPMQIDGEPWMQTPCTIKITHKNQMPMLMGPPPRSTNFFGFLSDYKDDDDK

The target in this assay is DGKα (Homo sapiens (Human), UniProt P23743). Put plainly: Human DGKα kinase activity inhibition assay (ADP-Glo). It counts as biochemical. Conditions: recombinant full-length human DGKα, 55 μM ATP, 7 μM 1,2-dioleoyl-sn-glycerol, read-out: IC50 values of examples in in vitro human DGKa kinase activity inhibition assays. An outline of the steps:
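Recombinant full-length human DGKα (C-terminal FLAG, from insect cells) phosphorylated 1,2-dioleoyl-sn-glycerol presented in octyl-glucopyranoside micelles. ADP formed was quantified by ADP-Glo luminescence. Compounds were added from 100-fold DMSO stocks.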
Turning to `Cc1cc2c(N3CCC(c4cnn(-c5ccccc5C)c4)CC3)c(C#N)c(=O)n(C)c2cc1Br` [Example 579, 7-bromo-1,6-dimethyl-4-{4-[1-(2-methylphenyl)-1H-pyrazol-4-yl]piperidin-1-yl}-2-oxo-1,2-dihydroquinoline-3-carbonitrile], the pIC50 was 7.21.
Regarding `Cn1c(=O)c(C#N)c(N2CCC(c3nc4ccccc4o3)CC2)c2cc(Br)ccc21` [Example 168, 4-[4-(1,3-benzoxazol-2-yl)piperidin-1-yl]-6-bromo-1-methyl-2-oxo-1,2-dihydroquinoline-3-carbonitrile], the pIC50 is 9.30.
For `Cc1ccc2oc(C3CCN(c4c(C(N)=O)c(=O)n(C)c5ccc(C6(C(F)(F)F)CC6)cc45)CC3)nc2c1` [Example 507, 1-methyl-4-[4-(5-methyl-1,3-benzoxazol-2-yl)piperidin-1-yl]-2-oxo-6-[1-(trifluoromethyl)cyclopropyl]-1,2-dihydroquinoline-3-carboxamide], the negative logarithm of the IC50 (pIC50) is 7.07.
The figure for `COc1ccc2oc(C3(F)CCN(c4c(C#N)c(=O)n(C)c5ccccc45)CC3)nc2c1` [Example 393, 4-[4-fluoro-4-(5-methoxy-1,3-benzoxazol-2-yl)piperidin-1-yl]-1-methyl-2-oxo-1,2-dihydroquinoline-3-carbonitrile] is 6.97; for `COc1ccc2cc(C3CCN(c4c(C(N)=O)c(=O)n(C)c5ccccc45)CC3)ccc2c1` [Example 457, 4-[4-(6-methoxynaphthalen-2-yl)piperidin-1-yl]-1-methyl-2-oxo-1,2-dihydroquinoline-3-carboxamide] it is 8.17; for `Cc1ccc2oc(C3(C)CCN(c4c(C#N)c(=O)n(C)c5cc(OC6CC6)ccc45)CC3)nc2c1` [Example 244, 7-(cyclopropyloxy)-1-methyl-4-[4-methyl-4-(5-methyl-1,3-benzoxazol-2-yl)piperidin-1-yl]-2-oxo-1,2-dihydroquinoline-3-carbonitrile] it is 8.34.
As for `COc1ccc(-c2noc(C3CCN(c4c(C(N)=O)c(=O)n(C)c5ccccc45)CC3)n2)cc1` [Example 459, 4-{4-[3-(4-methoxyphenyl)-1,2,4-oxadiazol-5-yl]piperidin-1-yl}-1-methyl-2-oxo-1,2-dihydroquinoline-3-carboxamide], the pIC50 was 8.01.
As for `Cn1c(=O)c(C#N)c(N2CCC(c3nc4cc(F)c(F)cc4o3)CC2)c2cccc(Br)c21` [Example 160, 8-bromo-4-[4-(5,6-difluoro-1,3-benzoxazol-2-yl)piperidin-1-yl]-1-methyl-2-oxo-1,2-dihydroquinoline-3-carbonitrile], the pIC50 is 6.26.
For `Cc1ccc2c(N3CCC(c4nc5ccccc5o4)CC3)c(C#N)c(=O)n(C)c2c1` [Example 219, 4-[4-(1,3-benzoxazol-2-yl)piperidin-1-yl]-1,7-dimethyl-2-oxo-1,2-dihydroquinoline-3-carbonitrile] the value was 8.80.
Consider `CCn1c(=O)c(C#N)c(N2CCC(c3nc4ccccc4o3)CC2)c2ccccc21` [Example 332, 4-[4-(1,3-benzoxazol-2-yl)piperidin-1-yl]-1-ethyl-2-oxo-1,2-dihydroquinoline-3-carbonitrile], for which the pIC50 was 7.77.
For `Cn1c(=O)c(C#N)c(N2CCC(c3ccccc3)CC2)c2ccccc21` [Example 57, 1-methyl-2-oxo-4-(4-phenylpiperidin-1-yl)-1,2-dihydroquinoline-3-carbonitrile], the pIC50 is 7.66.
For `CCCOc1ccc2c(N3CCC(c4nc5ccccc5s4)CC3)c(C#N)c(=O)n(C)c2c1` [Example 270, 4-[4-(1,3-benzothiazol-2-yl)piperidin-1-yl]-1-methyl-2-oxo-7-propoxy-1,2-dihydroquinoline-3-carbonitrile], the pIC50 is 7.14.
Take `COc1ccc(C2CCN(c3c(C#N)c(=O)n(C)c4ccc(C5=CCOCC5)cc34)CC2)cc1` [Example 180, 6-(3,6-dihydro-2H-pyran-4-yl)-4-[4-(4-methoxyphenyl)piperidin-1-yl]-1-methyl-2-oxo-1,2-dihydroquinoline-3-carbonitrile]: the pIC50 is 5.82.
Consider `Cn1c(=O)oc2cc(C3CCN(c4c(C#N)c(=O)n(C)c5ccccc45)CC3)ccc21` [Example 362, 1-methyl-4-[4-(3-methyl-2-oxo-2,3-dihydro-1,3-benzoxazol-6-yl)piperidin-1-yl]-2-oxo-1,2-dihydroquinoline-3-carbonitrile], for which the pIC50 is 6.97.
As for `Cn1c(=O)c(C#N)c(N2CCC(c3nc4ccc(Cl)cc4o3)CC2)c2cccc(Br)c21` [Example 157, 8-bromo-4-[4-(6-chloro-1,3-benzoxazol-2-yl)piperidin-1-yl]-1-methyl-2-oxo-1,2-dihydroquinoline-3-carbonitrile], the pIC50 is 6.60.
In the case of `CCCOc1cccc2c(N3CCC(C)(c4nc5cc(C)ccc5o4)CC3)c(C#N)c(=O)n(C)c12` [Example 273, 1-methyl-4-[4-methyl-4-(5-methyl-1,3-benzoxazol-2-yl)piperidin-1-yl]-2-oxo-8-propoxy-1,2-dihydroquinoline-3-carbonitrile], the pIC50 was 6.92.
Turning to `Cc1ccc2nc(C3CCN(c4c(C#N)c(=O)n(C)c5ccc(C)cc45)CC3)oc2c1` [Example 184, 1,6-dimethyl-4-[4-(6-methyl-1,3-benzoxazol-2-yl)piperidin-1-yl]-2-oxo-1,2-dihydroquinoline-3-carbonitrile], the negative logarithm of the IC50 (pIC50) is 8.82.
Turning to `Cc1ccc2oc(C3(C)CCN(c4c(C(N)=O)c(=O)n(C)c5cc(O)c(Br)cc45)CC3)nc2c1` [Example 512, 6-bromo-7-hydroxy-1-methyl-4-[4-methyl-4-(5-methyl-1,3-benzoxazol-2-yl)piperidin-1-yl]-2-oxo-1,2-dihydroquinoline-3-carboxamide], the pIC50 was 9.10.
For `CC(C)c1ccc2oc(C3CCN(c4c(C#N)c(=O)n(C)c5ccc(Br)cc45)CC3)nc2c1` [Example 170, 6-bromo-1-methyl-2-oxo-4-{4-[5-(propan-2-yl)-1,3-benzoxazol-2-yl]piperidin-1-yl}-1,2-dihydroquinoline-3-carbonitrile] the value was 8.14; for `Cc1ccc2oc(C3CCN(c4c(C(N)=O)c(=O)n(C)c5ccccc45)CC3)nc2c1` [Example 107, 1-methyl-4-[4-(5-methyl-1,3-benzoxazol-2-yl)piperidin-1-yl]-2-oxo-1,2-dihydroquinoline-3-carboxamide], 8.64; for `Cn1c(=O)c(C#N)c(N2CCC(c3cccnc3)CC2)c2ccccc21` [Example 144, 1-methyl-2-oxo-4-[4-(pyridin-3-yl)piperidin-1-yl]-1,2-dihydroquinoline-3-carbonitrile], 6.05.
In the case of `Cn1c(=O)c(C#N)c(N2CCC(c3cccc4occc34)CC2)c2ccccc21` [Example 101, 4-[4-(1-benzofuran-4-yl)piperidin-1-yl]-1-methyl-2-oxo-1,2-dihydroquinoline-3-carbonitrile], the pIC50 was 7.92.
Consider `Cc1ccc2oc(C3CCN(c4c(C#N)c(=O)n(C)c5ccc(C6CCC6)cc45)CC3)nc2c1` [Example 409, 6-cyclobutyl-1-methyl-4-[4-(5-methyl-1,3-benzoxazol-2-yl)piperidin-1-yl]-2-oxo-1,2-dihydroquinoline-3-carbonitrile], for which the pIC50 is 8.08.
As to `Cn1c(=O)c(C#N)c(N2CCC(C)(c3nc4cc(C(C)(C)C)ccc4o3)CC2)c2ccccc21` [Example 24, 4-[4-(5-tert-butyl-1,3-benzoxazol-2-yl)-4-methylpiperidin-1-yl]-1-methyl-2-oxo-1,2-dihydroquinoline-3-carbonitrile], the pIC50 is 7.35.
In the case of `Cc1ccc2oc(C3(C)CCN(c4c(C(N)=O)c(=O)n(C)c5cc(C)ccc45)CC3)nc2c1` [Example 312, 1,7-dimethyl-4-[4-methyl-4-(5-methyl-1,3-benzoxazol-2-yl)piperidin-1-yl]-2-oxo-1,2-dihydroquinoline-3-carboxamide], the pIC50 was 9.15.
`Cn1c(=O)c(C#N)c(N2CCC(c3ccc(OCc4ccccc4)cc3)CC2)c2ccccc21` [Example 48, 4-{4-[4-(benzyloxy)phenyl]piperidin-1-yl}-1-methyl-2-oxo-1,2-dihydroquinoline-3-carbonitrile]: the pIC50 was 8.52.
Regarding `COc1ccc(C2CCN(c3c(C#N)c(=O)n(C)c4ccccc34)CC2)cc1OC` [Example 324, 4-[4-(3,4-dimethoxyphenyl)piperidin-1-yl]-1-methyl-2-oxo-1,2-dihydroquinoline-3-carbonitrile], the pIC50 was 7.85.
The figure for `Cc1ccc2oc(C3CCN(c4c(C(N)=O)c(=O)n(C)c5ccc(C)cc45)CC3)nc2c1` [Example 194, 1,6-dimethyl-4-[4-(5-methyl-1,3-benzoxazol-2-yl)piperidin-1-yl]-2-oxo-1,2-dihydroquinoline-3-carboxamide] is 8.66; for `COc1cccc2c(N3CCC(C)(c4nc5cc(C)ccc5o4)CC3)c(C#N)c(=O)n(C)c12` [Example 260, 8-methoxy-1-methyl-4-[4-methyl-4-(5-methyl-1,3-benzoxazol-2-yl)piperidin-1-yl]-2-oxo-1,2-dihydroquinoline-3-carbonitrile] it is 7.46; for `Cc1ccc2oc(C3(F)CCN(c4c(C(N)=O)c(=O)n(C)c5cc(OC6CCOC6)ccc45)CC3)nc2c1` (centres unmarked) [Example 509, 4-[4-fluoro-4-(5-methyl-1,3-benzoxazol-2-yl)piperidin-1-yl]-1-methyl-2-oxo-7-[(oxolan-3-yl)oxy]-1,2-dihydroquinoline-3-carboxamide] it is 8.70.
Regarding `Cc1ccc2c(c1)c(N1CCC(C)(c3nc4ccccc4o3)CC1)c(C#N)c(=O)n2C` [Example 214, 4-[4-(1,3-benzoxazol-2-yl)-4-methylpiperidin-1-yl]-1,6-dimethyl-2-oxo-1,2-dihydroquinoline-3-carbonitrile], the pIC50 is 9.05.
Regarding `Cn1c(=O)c(C#N)c(N2CCC(c3nc(-c4cccnc4)no3)CC2)c2ccccc21` [Example 370, 1-methyl-2-oxo-4-{4-[3-(pyridin-3-yl)-1,2,4-oxadiazol-5-yl]piperidin-1-yl}-1,2-dihydroquinoline-3-carbonitrile], the pIC50 was 6.80.
